# From patent US10004701B2, “Methods and compositions for treating infection” (UNIVERSITY OF ROCHESTER, priority 2012, dated 2018)
# Structures can show the parent of a compound that is named as a salt. Where two headings read alike, the source gives them in different places.
# Columns and labels:
# Experiment in all cases: AK assay 384-well format, Prestwick library screening
# P. aeruginosa = type: cell-based, Pseudomonas aeruginosa; details: Pseudomonas aeruginosa, 3 h, 50 μM final drug concentration
# [1] = test system: S. aureus strain USA300-0114; type: cell-based, Staphylococcus aureus; details: Staphylococcus aureus, USA300, 3 h, 50 μM final drug concentration
# [2] = test system: A. baumannii strain 98-37-09; type: cell-based, Acinetobacter baumannii; details: Acinetobacter baumannii, 983709, 3 h, 50 μM final drug concentration
# E. coli = type: cell-based, Escherichia coli; details: Escherichia coli, 3 h, 50 μM final drug concentration
# K. pneumoniae = type: cell-based, Klebsiella pneumoniae; details: Klebsiella pneumoniae, 3 h, 50 μM final drug concentration
# E. cloacae = type: cell-based, Enterobacter cloacae; details: Enterobacter cloacae, 3 h, 50 μM final drug concentration
# E. faecium = type: cell-based, Enterococcus faecium; details: Enterococcus faecium, 3 h, 50 μM final drug concentration
# [3] = planktonic, cutoff for positive-scoring molecules 3-fold increase, read-out: AK-based Prestwick Library Screening Results, P. aeruginosa (fold increase in extracellular AK activity)
# [4] = planktonic, cutoff for positive-scoring molecules 3-fold increase, read-out: AK-based Prestwick Library Screening Results, S. aureus (fold increase in extracellular AK activity)
# [5] = planktonic, cutoff for positive-scoring molecules 3-fold increase, read-out: AK-based Prestwick Library Screening Results, A. baumannii (fold increase in extracellular AK activity)
# [6] = planktonic, cutoff for positive-scoring molecules 3-fold increase, read-out: AK-based Prestwick Library Screening Results, E. coli (fold increase in extracellular AK activity)
# [7] = planktonic, cutoff for positive-scoring molecules 3-fold increase, read-out: AK-based Prestwick Library Screening Results, K. pneumoniae (fold increase in extracellular AK activity)
# [8] = planktonic, cutoff for positive-scoring molecules 3-fold increase, read-out: AK-based Prestwick Library Screening Results, E. cloacae (fold increase in extracellular AK activity)
# [9] = planktonic, cutoff for positive-scoring molecules 3-fold increase, read-out: AK-based Prestwick Library Screening Results, E. faecium (fold increase in extracellular AK activity)
smiles,measurement,setting,value
CC(=O)[C@H]1CC[C@H]2[C@@H]3C=CC4=CC(=O)CC[C@@]4(C)[C@@H]3CC[C@]12C [Dydrogesterone],fold induction at 50 µM,P. aeruginosa; [3],0.9
same,fold induction at 50 µM,[1]; [4],0.7
same,fold induction at 50 µM,[2]; [5],0.8
same,fold induction at 50 µM,E. coli; [6],0.9
same,fold induction at 50 µM,K. pneumoniae; [7],0.8
same,fold induction at 50 µM,E. cloacae; [8],1.2
same,fold induction at 50 µM,E. faecium; [9],1
O=c1c2ccccc2[se]n1-c1ccccc1 [Ebselen],fold induction at 50 µM,P. aeruginosa; [3],0.6
same,fold induction at 50 µM,[1]; [4],0.5
same,fold induction at 50 µM,[2]; [5],0.7
same,fold induction at 50 µM,E. coli; [6],0.6
same,fold induction at 50 µM,K. pneumoniae; [7],0.6
same,fold induction at 50 µM,E. cloacae; [8],0.7
same,fold induction at 50 µM,E. faecium; [9],0.9
Clc1ccc(COC(Cn2ccnc2)c2ccc(Cl)cc2Cl)cc1 (centres unmarked) [Econazole nitrate],fold induction at 50 µM,"P. aeruginosa; planktonic P. aeruginosa, 384-well, cutoff for positive-scoring molecules 3-fold increase, read-out: AK-based Prestwick Library Screening Results: P. aeruginosa (increase in extracellular AK activity)",1.3
same,fold induction at 50 µM,"[1]; planktonic S. aureus, 384-well, cutoff for positive-scoring molecules 3-fold increase, read-out: AK-based Prestwick Library Screening Results: S. aureus (increase in extracellular AK activity)",3.7
same,fold induction at 50 µM,"[2]; planktonic A. baumannii, 384-well, cutoff for positive-scoring molecules 3-fold increase, read-out: AK-based Prestwick Library Screening Results: A. baumannii (increase in extracellular AK activity)",6.7
same,fold induction at 50 µM,"E. coli; planktonic E. coli, 384-well, cutoff for positive-scoring molecules 3-fold increase, read-out: AK-based Prestwick Library Screening Results: E. coli (increase in extracellular AK activity)",1.3
same,fold induction at 50 µM,"K. pneumoniae; planktonic K. pneumoniae, 384-well, cutoff for positive-scoring molecules 3-fold increase, read-out: AK-based Prestwick Library Screening Results: K. pneumoniae (increase in extracellular AK activity)",1.3
same,fold induction at 50 µM,"E. cloacae; planktonic E. cloacae, 384-well, cutoff for positive-scoring molecules 3-fold increase, read-out: AK-based Prestwick Library Screening Results: E. cloacae (increase in extracellular AK activity)",1.3
same,fold induction at 50 µM,"E. faecium; planktonic E. faecium, 384-well, cutoff for positive-scoring molecules 3-fold increase, read-out: AK-based Prestwick Library Screening Results: E. faecium (increase in extracellular AK activity)",1.5
CC[N+](C)(C)c1cccc(O)c1 [Edrophonium chloride],fold induction at 50 µM,"P. aeruginosa; 384-well format, […], read-out: AK-based Prestwick Library Screening Results, P. aeruginosa (increase in extracellular AK activity)",0.4
same,fold induction at 50 µM,"[1]; 384-well format, […], read-out: AK-based Prestwick Library Screening Results, S. aureus (increase in extracellular AK activity)",0.4
same,fold induction at 50 µM,"[2]; 384-well format, […], read-out: AK-based Prestwick Library Screening Results, A. baumannii (increase in extracellular AK activity)",0.4
same,fold induction at 50 µM,"E. coli; 384-well format, […], read-out: AK-based Prestwick Library Screening Results, E. coli (increase in extracellular AK activity)",0.4
same,fold induction at 50 µM,"K. pneumoniae; 384-well format, […], read-out: AK-based Prestwick Library Screening Results, K. pneumoniae (increase in extracellular AK activity)",0.5
same,fold induction at 50 µM,"E. cloacae; 384-well format, […], read-out: AK-based Prestwick Library Screening Results, E. cloacae (increase in extracellular AK activity)",0.3
same,fold induction at 50 µM,"E. faecium; 384-well format, […], read-out: AK-based Prestwick Library Screening Results, E. faecium (increase in extracellular AK activity)",0.8
Cc1c2ccncc2c(C)c2c1[nH]c1ccccc12 [Ellipticine],fold induction at 50 µM,"P. aeruginosa; planktonic, cutoff for positive 3-fold increase, read-out: AK-based Prestwick Library Screening Results, P. aeruginosa (fold increase in extracellular AK activity)",1.2
same,fold induction at 50 µM,"[1]; planktonic, cutoff for positive 3-fold increase, read-out: AK-based Prestwick Library Screening Results, S. aureus (fold increase in extracellular AK activity)",0.8
same,fold induction at 50 µM,"[2]; planktonic, cutoff for positive 3-fold increase, read-out: AK-based Prestwick Library Screening Results, A. baumannii (fold increase in extracellular AK activity)",4.1
same,fold induction at 50 µM,"E. coli; planktonic, cutoff for positive 3-fold increase, read-out: AK-based Prestwick Library Screening Results, E. coli (fold increase in extracellular AK activity)",1.3
same,fold induction at 50 µM,"K. pneumoniae; planktonic, cutoff for positive 3-fold increase, read-out: AK-based Prestwick Library Screening Results, K. pneumoniae (fold increase in extracellular AK activity)",1
same,fold induction at 50 µM,"E. cloacae; planktonic, cutoff for positive 3-fold increase, read-out: AK-based Prestwick Library Screening Results, E. cloacae (fold increase in extracellular AK activity)",1.8
same,fold induction at 50 µM,"E. faecium; planktonic, cutoff for positive 3-fold increase, read-out: AK-based Prestwick Library Screening Results, E. faecium (fold increase in extracellular AK activity)",1.3
CC[C@H]1CN2CCc3cc(OC)c(OC)cc3[C@@H]2C[C@@H]1C[C@H]1NCCc2cc(OC)c(OC)cc21 [Emetine dihydrochloride],fold induction at 50 µM,"P. aeruginosa; planktonic P. aeruginosa, cutoff for positive-scoring molecules 3-fold increase, read-out: AK-based Prestwick Library Screening Results, P. aeruginosa (increase in extracellular AK activity)",0.5
same,fold induction at 50 µM,"[1]; planktonic S. aureus, cutoff for positive-scoring molecules 3-fold increase, read-out: AK-based Prestwick Library Screening Results, S. aureus (increase in extracellular AK activity)",0.5
same,fold induction at 50 µM,"[2]; planktonic A. baumannii, cutoff for positive-scoring molecules 3-fold increase, read-out: AK-based Prestwick Library Screening Results, A. baumannii (increase in extracellular AK activity)",0.5
same,fold induction at 50 µM,"E. coli; planktonic E. coli, cutoff for positive-scoring molecules 3-fold increase, read-out: AK-based Prestwick Library Screening Results, E. coli (increase in extracellular AK activity)",0.5
same,fold induction at 50 µM,"K. pneumoniae; planktonic K. pneumoniae, cutoff for positive-scoring molecules 3-fold increase, read-out: AK-based Prestwick Library Screening Results, K. pneumoniae (increase in extracellular AK activity)",0.6
same,fold induction at 50 µM,"E. cloacae; planktonic E. cloacae, cutoff for positive-scoring molecules 3-fold increase, read-out: AK-based Prestwick Library Screening Results, E. cloacae (increase in extracellular AK activity)",0.5
same,fold induction at 50 µM,"E. faecium; planktonic E. faecium, cutoff for positive-scoring molecules 3-fold increase, read-out: AK-based Prestwick Library Screening Results, E. faecium (increase in extracellular AK activity)",0.9
CCOC(=O)[C@H](CCc1ccccc1)N[C@@H](C)C(=O)N1CCC[C@H]1C(=O)O [Enalapril maleate],fold induction at 50 µM,"P. aeruginosa; planktonic P. aeruginosa, 384-well, […], read-out: AK-based Prestwick Library Screening Results: P. aeruginosa (increase in extracellular AK activity)",1.2
same,fold induction at 50 µM,"[1]; planktonic S. aureus, 384-well, […], read-out: AK-based Prestwick Library Screening Results: S. aureus (increase in extracellular AK activity)",1.3
same,fold induction at 50 µM,"[2]; planktonic A. baumannii, 384-well, […], read-out: AK-based Prestwick Library Screening Results: A. baumannii (increase in extracellular AK activity)",1.3
same,fold induction at 50 µM,"E. coli; planktonic E. coli, 384-well, […], read-out: AK-based Prestwick Library Screening Results: E. coli (increase in extracellular AK activity)",1.2
same,fold induction at 50 µM,"K. pneumoniae; planktonic K. pneumoniae, 384-well, […], read-out: AK-based Prestwick Library Screening Results: K. pneumoniae (increase in extracellular AK activity)",1.2
same,fold induction at 50 µM,"E. cloacae; planktonic E. cloacae, 384-well, […], read-out: AK-based Prestwick Library Screening Results: E. cloacae (increase in extracellular AK activity)",1.3
same,fold induction at 50 µM,"E. faecium; planktonic E. faecium, 384-well, […], read-out: AK-based Prestwick Library Screening Results: E. faecium (increase in extracellular AK activity)",1.1
C=CCOC(Cn1ccnc1)c1ccc(Cl)cc1Cl (centres unmarked) [Enilconazole],fold induction at 50 µM,"P. aeruginosa; cutoff for positive-scoring molecules 3-fold increase, read-out: AK-based Prestwick Library Screening Results, P. aeruginosa (fold increase in extracellular AK activity)",0.4
same,fold induction at 50 µM,"[1]; cutoff for positive-scoring molecules 3-fold increase, read-out: AK-based Prestwick Library Screening Results, S. aureus (fold increase in extracellular AK activity)",0.4
same,fold induction at 50 µM,"[2]; cutoff for positive-scoring molecules 3-fold increase, read-out: AK-based Prestwick Library Screening Results, A. baumannii (fold increase in extracellular AK activity)",0.4
same,fold induction at 50 µM,"E. coli; cutoff for positive-scoring molecules 3-fold increase, read-out: AK-based Prestwick Library Screening Results, E. coli (fold increase in extracellular AK activity)",0.5
same,fold induction at 50 µM,"K. pneumoniae; cutoff for positive-scoring molecules 3-fold increase, read-out: AK-based Prestwick Library Screening Results, K. pneumoniae (fold increase in extracellular AK activity)",0.5
same,fold induction at 50 µM,"E. cloacae; cutoff for positive-scoring molecules 3-fold increase, read-out: AK-based Prestwick Library Screening Results, E. cloacae (fold increase in extracellular AK activity)",0.4
same,fold induction at 50 µM,"E. faecium; cutoff for positive-scoring molecules 3-fold increase, read-out: AK-based Prestwick Library Screening Results, E. faecium (fold increase in extracellular AK activity)",1.1
